Measured values published in publication PMC8856928, “A new strategy for hit generation: Novel in cellulo active inhibitors of CYP121A1 from Mycobacterium tuberculosis via a combined X-ray crystallographic and phenotypic screening approach (XP screen)” (European Journal of Medicinal Chemistry, 2022).
Counter-ions that a name gives are not always drawn. Like-named read-outs stand apart in the source and are kept apart here.

Key:
CYP121A1 [1] = target: T1, CYP121A1 (Mycobacterium tuberculosis, UniProt P9WPP7); assay: biochemical; type: binding; settings: UV-Vis titration; compounds screened at 300 μM; Type II Soret shift; 28 °C
T1 construct: made in house
T1 sequence (P9WPP7 whole entry): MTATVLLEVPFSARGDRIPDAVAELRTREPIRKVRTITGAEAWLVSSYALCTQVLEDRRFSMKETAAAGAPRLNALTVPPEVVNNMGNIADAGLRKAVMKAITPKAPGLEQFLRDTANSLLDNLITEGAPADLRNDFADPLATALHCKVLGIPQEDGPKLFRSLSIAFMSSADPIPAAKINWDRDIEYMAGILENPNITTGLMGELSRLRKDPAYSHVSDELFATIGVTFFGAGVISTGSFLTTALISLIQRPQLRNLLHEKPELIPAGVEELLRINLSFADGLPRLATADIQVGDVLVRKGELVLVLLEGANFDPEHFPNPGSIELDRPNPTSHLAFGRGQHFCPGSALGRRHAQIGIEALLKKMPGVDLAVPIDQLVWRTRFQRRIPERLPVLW

CYP121A1 [2] = target: T1, CYP121A1; assay: X-ray crystallographic screening (crystal soaking); type: binding; settings: soaking experiments
Mtb strain H37Rv = settings: comparison with 61; cited from earlier work
Mtb CYP121A1 [3] = target: T2, Mtb CYP121A1 (Mycobacterium tuberculosis, UniProt P9WPP7); assay: Differential scanning fluorimetry (DSF); type: binding; settings: read-out: ΔTm
T2 construct: His6; made in house
T2 sequence (P9WPP7 whole entry): as above

Mtb CYP121A1 [4] = target: T2, Mtb CYP121A1; assay: biochemical; type: binding; settings: 25 °C, 50 μM CYP121A1, 10% DMSO-d6; read-out: Kd (ITC)
Mtb H37Rv = assay: Antimycobacterial activity assay (resazurin colorimetric, whole-cell); type: cell-based, Mycobacterium tuberculosis; settings: for MIC90: Mycobacterium tuberculosis, H37RV; for Activity against Mtb: three growth media
CYP121A1 [5] = target: T1, CYP121A1; type: biochemical; settings: 100 μM compound + 100 μM cYY
[6] = 168 h, Mtb H37Rv, 7H9 with low BSA (0.05% albumin, ADN), one week, read-out: MIC90 7H9-Low BSA
[7] = 168 h, Mtb H37Rv, Middlebrook 7H9 with 10% ADC (BSA rich), one week, read-out: MIC90 c7H9
[8] = 336 h, Mtb H37Rv, Mycobacterial Minimal Medium with cholesterol, two weeks, read-out: MIC90 MMM-Ch
[9] = medium not specified or span over the three growth media tested, read-out: MIC90 against Mtb strain H37Rv

SMILES | MIC90 (Mtb H37Rv; [6]) [µM] | MIC90 (Mtb H37Rv; [7]) [µM] | MIC90 (Mtb H37Rv; [8]) [µM] | also measured
c1ccc2c(CCc3ccncc3)c[nH]c2c1 [Compound 7] | – | – | – | Kd (CYP121A1 [1]): 483 ± 76 µM; X-ray crystallographic screening result (CYP121A1 [2]): hits
Clc1ccc(COC(Cn2ccnc2)c2ccc(Cl)cc2Cl)cc1 (centres unmarked) [econazole] | – | – | – | MIC90 of azole anti-fungal drugs (Mtb strain H37Rv): 8 µg/mL
c1ccc2c(CCc3nc4c(c(N5CC6CCC(C5)O6)n3)CNC4)c[nH]c2c1 [Compound 82, 3-(2-(2-(1H-Indol-3-yl)ethyl)-6,7-dihydro-5H-pyrrolo[3,4-d]pyrimidin-4-yl)-8-oxa-3-azabicyclo[3.2.1]octane hydrochloride] | – | – | – | ΔTm at 1000 µM (Mtb CYP121A1 [3]): 2.4 °C
Nc1[nH]nc(-c2ccc(O)cc2)c1-c1ccc(O)cc1 [Compound 45, reference compound] | – | – | – | Kd (Mtb CYP121A1 [4]): 20 to 25 µM; ΔTm at 1000 µM (Mtb CYP121A1 [3]): 1 °C
c1ccc2c(c1)OCCN2c1nccc(CCc2c[nH]c3ccccc23)n1 [Compound 61, 4-(4-(2-(1H-Indol-3-yl)ethyl)pyrimidin-2-yl)-3,4-dihydro-2H-benzo[b][1,4]oxazine] | 25 | 12.5 | 6.25 | MIC90 (Mtb H37Rv; converted from μM value, read-out: MIC90 against Mtb strain H37Rv): ~2.2 µg/mL; MIC90 (Mtb H37Rv; [9]): 6.25 µM; Activity against Mtb (Mtb H37Rv): moderate inhibitors; Inhibition of CYP121A1 / production of mycocyclosin (CYP121A1 [5]): markedly reduced the production of mycocyclosin
COc1ccc2[nH]cc(CCc3ccncc3)c2c1 [Compound 43] | – | – | – | Kd (CYP121A1 [1]): 105 ± 10 µM
FC(F)(F)Oc1ccc2[nH]cc(CCc3ccncc3)c2c1 [Compound 44, 3-(2-(Pyridin-4-yl)ethyl)-5-(trifluoromethoxy)-1H-indole] | – | – | – | Kd (CYP121A1 [1]): 12.7 ± 2.3 µM
Clc1ccccc1C(c1ccccc1)(c1ccccc1)n1ccnc1 [clotrimazole] | – | – | – | MIC90 of azole anti-fungal drugs (Mtb strain H37Rv): 11 µg/mL
COC1CN(c2nccc(CCc3c[nH]c4ccc(Cl)cc34)n2)C1 [Compound 32, 5-Chloro-3-(2-(2-(3-methoxyazetidin-1-yl)pyrimidin-4-yl)ethyl)-1H-indole] | 100 | 200 | 50 | MIC90 (Mtb H37Rv; [9]): 12.5 to 50 µM
Brc1ccc2[nH]cc(CCc3ccncc3)c2c1 [Compound 9] | – | – | – | Kd (CYP121A1 [1]): 3.8 ± 0.5 µM
c1ccc2c(CCc3nc4c(c(N5CCOCC5)n3)CCNC4)c[nH]c2c1 [Compound 83, 4-(2-(2-(1H-Indol-3-yl)ethyl)-5,6,7,8-tetrahydropyrido[3,4-d]pyrimidin-4-yl)morpholine hydrochloride] | – | – | – | ΔTm at 1000 µM (Mtb CYP121A1 [3]): 1 °C
Cn1cc(CCc2ccnc(N3CCOCC3)n2)c2ccccc21 [Compound 57, 4-(4-(2-(1-Methyl-1H-indol-3-yl)ethyl)pyrimidin-2-yl)morpholine] | 25 | 50 | 25 | Activity against Mtb (Mtb H37Rv): moderate inhibitors
Oc1ccc2[nH]cc(CCc3ccnc(N4CCOCC4)n3)c2c1 [Compound 55, 3-(2-(2-Morpholinopyrimidin-4-yl)ethyl)-1H-indol-5-ol] | – | – | – | ΔTm at 1000 µM (Mtb CYP121A1 [3]): 0.5 °C
Brc1ccc2[nH]cc(CCc3ccnc(N4CCCO4)n3)c2c1 [Compound 30, 2-(4-(2-(5-Bromo-1H-indol-3-yl)ethyl)pyrimidin-2-yl)isoxazolidine] | 200 | 200 | 100 | –
CO[C@H]1/C=C/O[C@@]2(C)Oc3c(C)c(O)c4c(O)c(c(/C=N/N5CCN(C)CC5)c(O)c4c3C2=O)NC(=O)/C(C)=C\C=C\[C@H](C)[C@H](O)[C@@H](C)[C@@H](O)[C@@H](C)[C@H](OC(C)=O)[C@@H]1C [Rifampicin, reference compound] | 0.013 | 0.023 | 0.013 | –
c1ccc2c(CCc3ccnc(N4CCSCC4)n3)c[nH]c2c1 [Compound 15, 4-(4-(2-(1H-Indol-3-yl)ethyl)pyrimidin-2-yl)thiomorpholine] | 100 | 200 | 25 | MIC90 (Mtb H37Rv; [9]): 12.5 to 50 µM
CN1CCN(c2nccc(CCc3c[nH]c4ccc(Br)cc34)n2)CC1 [Compound 23, 5-Bromo-3-(2-(2-(4-methylpiperazin-1-yl)pyrimidin-4-yl)ethyl)-1H-indole] | 25 | 100 | 12.5 | MIC90 (Mtb H37Rv; [9]): 12.5 to 50 µM

SMILES | MIC90 (Mtb H37Rv; [6]) [µM] | MIC90 (Mtb H37Rv; [7]) [µM] | MIC90 (Mtb H37Rv; [8]) [µM] | also measured
c1ccc2c(CCc3nc4c(c(N5CCOCC5)n3)CNC4)c[nH]c2c1 [Compound 81, 4-(2-(2-(1H-Indol-3-yl)ethyl)-6,7-dihydro-5H-pyrrolo[3,4-d]pyrimidin-4-yl)morpholine hydrochloride] | – | – | – | ΔTm at 1000 µM (Mtb CYP121A1 [3]): 3.5 °C
Fc1ccc2[nH]cc(CCc3ccnc(N4CCOCC4)n3)c2c1 [Compound 51, 4-(4-(2-(5-Fluoro-1H-indol-3-yl)ethyl)pyrimidin-2-yl)morpholine] | 50 | 25 | 25 | Activity against Mtb (Mtb H37Rv): moderate inhibitors
c1ccc2c(CCc3ccnc(N4CC5CCC(C4)O5)n3)c[nH]c2c1 [Compound 58, 3-(4-(2-(1H-Indol-3-yl)ethyl)pyrimidin-2-yl)-8-oxa-3-azabicyclo[3.2.1]octane] | 50 | 200 | 25 | Activity against Mtb (Mtb H37Rv): active, but showed much reduced potency in BSA rich medium
COC1CN(c2nccc(CCc3c[nH]c4ccc(Br)cc34)n2)C1 [Compound 33, 5-Bromo-3-(2-(2-(3-methoxyazetidin-1-yl)pyrimidin-4-yl)ethyl)-1H-indole] | – | – | – | X-ray crystallographic screening result (CYP121A1 [2]): hits
COC1CN(c2nccc(CCc3c[nH]c4ccccc34)n2)C1 [Compound 31, 3-(2-(2-(3-Methoxyazetidin-1-yl)pyrimidin-4-yl)ethyl)-1H-indole] | 25 | 50 | 25 | Activity against Mtb (Mtb H37Rv): moderate inhibitors; X-ray crystallographic screening result (CYP121A1 [2]): hits
c1ccc2c(CCc3ccncn3)c[nH]c2c1 [Compound 10] | – | – | – | ΔTm at 1000 µM (Mtb CYP121A1 [3]): 3.5 °C; X-ray crystallographic screening result (CYP121A1 [2]): hits
Brc1ccc2[nH]cc(CCc3ccnc(N4CCOCC4)n3)c2c1 [Compound 21, 4-(4-(2-(5-Bromo-1H-indol-3-yl)ethyl)pyrimidin-2-yl)morpholine] | – | – | – | X-ray crystallographic screening result (CYP121A1 [2]): hits
FC(F)(F)Oc1ccc2[nH]cc(CCc3ccnc(N4CCOCC4)n3)c2c1 [Compound 53, 4-(4-(2-(5-(Trifluoromethoxy)-1H-indol-3-yl)ethyl)pyrimidin-2-yl)morpholine] | 25 | 25 | 50 | Activity against Mtb (Mtb H37Rv): moderate inhibitors
Ic1ccc2[nH]cc(CCc3ccncc3)c2c1 [Compound 42, 5-Iodo-3-(2-(pyridin-4-yl)ethyl)-1H-indole] | – | – | – | Kd (CYP121A1 [1]): 3.2 ± 0.3 µM
Clc1ccc(COC(Cn2ccnc2)c2ccc(Cl)cc2Cl)c(Cl)c1 (centres unmarked) [miconazole] | – | – | – | MIC90 of azole anti-fungal drugs (Mtb strain H37Rv): 8 µg/mL
Brc1ccc2c(c1)N(c1nccc(CCc3c[nH]c4ccccc34)n1)CCO2 [Compound 63, 4-(4-(2-(1H-Indol-3-yl)ethyl)pyrimidin-2-yl)-6-bromo-3,4-dihydro-2H-benzo[b][1,4]oxazine] | 50 | 25 | 50 | Activity against Mtb (Mtb H37Rv): moderate inhibitors
Clc1ccc2[nH]cc(CCc3ccncc3)c2c1 [Compound 8] | – | – | – | Kd (CYP121A1 [1]): 5.8 ± 0.7 µM
Fc1ccc2[nH]cc(CCc3ccncc3)c2c1 [Compound 41] | – | – | – | Kd (CYP121A1 [1]): 27.3 ± 4.8 µM
FC(F)(F)Oc1ccc(-c2nccc(CCc3c[nH]c4ccccc34)n2)cc1 [Compound 34, 3-(2-(2-(4-(Trifluoromethoxy)phenyl)pyrimidin-4-yl)ethyl)-1H-indole] | 100 | 100 | 12.5 | MIC90 (Mtb H37Rv; [9]): 12.5 to 50 µM
c1ccc2c(CCc3ccnc(N4CCCOCC4)n3)c[nH]c2c1 [Compound 60, 4-(4-(2-(1H-Indol-3-yl)ethyl)pyrimidin-2-yl)-1,4-oxazepane] | 50 | 25 | 25 | Activity against Mtb (Mtb H37Rv): moderate inhibitors
CC(=O)n1cc(CCc2ccnc(N3CCOCC3)n2)c2ccccc21 [Compound 64, 1-(3-(2-(2-Morpholinopyrimidin-4-yl)ethyl)-1H-indol-1-yl)ethan-1-one] | > 400 | > 400 | > 400 | Activity against Mtb (Mtb H37Rv): essentially lost all activity
